Measured values taken from article PMC7926937, “Suramin Targets the Conserved Ligand-Binding Pocket of Human Raf1 Kinase Inhibitory Protein” (Molecules, 2021).
Residue numbers refer to the chain shown, from its start. Like-named read-outs stand apart in the source and are kept apart here.

Columns and labels:
hRKIP [1] = molecular target: T1, hRKIP (Homo sapiens, UniProt P30086); set-up: method as in PMID 30137201; conditions: PE binding to hRKIP ref 34; cited from earlier work
T1 construct: made in house; host or cells: E. coli

hRKIP [2] = molecular target: T1, hRKIP; assay: BLI assay of ligand binding to wild-type hRKIP
Procedure: (§1) Both unlabeled and ^15N-labeled hRKIP proteins were prepared as described previously. Eight hRKIP mutants (P74L, Y81A, S109A, P111L, P112L, K113A, W173A, and Y181A) were generated by site-directed mutagenesis using the vector of pReceiver-B01a-RKIP as the template and confirmed by DNA sequencing. All protein purifications were performed at 4 °C. Protein purities were verified by polyacrylamide gel electrophoresis, and protein concentrations were measured by NanoVue (GE Heathcare Co, Boston, MA, USA).
(§2) The interaction between hRKIP and suramin was detected by using the ForteBio Octet Red system (ForteBio, Inc, San Francisco, CA, USA). The wild-type His-tagged hRKIP protein or its mutant was immobilized onto NTA reactive biosensors, and the captured biosensors were individually dipped into the wells containing various concentrations of suramin (25, 50, 100, 200, and 400 μM). The association at each suramin concentration was detected for 900 s, while the dissociation was monitored for 1800 s. The sensors loading hRKIP without suramin were used as controls to correct baseline drifts. The wells containing various concentrations of suramin without loading protein served as references. The association and dissociation responses were corrected and processed using Octet Data Analysis Software (Version 7.0, ForteBio, Inc, San Francisco, CA, USA). The interferometry data were fitted using the 1:1 Langmuir binding model.

hRKIP P112L mutant = molecular target: T2, hRKIP P112L mutant (Homo sapiens, UniProt P30086, P112L); assay: BLI assay of suramin binding to hRKIP mutant P112L
T2 construct: made in house; host or cells: E. coli
T2 sequence (P30086 1-187 P112L): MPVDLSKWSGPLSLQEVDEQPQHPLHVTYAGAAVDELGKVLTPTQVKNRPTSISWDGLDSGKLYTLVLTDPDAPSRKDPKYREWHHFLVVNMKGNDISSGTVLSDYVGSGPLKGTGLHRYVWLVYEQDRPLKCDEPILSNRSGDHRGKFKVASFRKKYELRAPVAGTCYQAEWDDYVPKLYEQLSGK
Procedure: as §1, §2

[3] = test system: HEK293T cells transfected with hRKIP; assay: Viability of HEK293T cells transfected with hRKIP; assay type: cell-based, human
Procedure: We further explored the effects of suramin treatment on hRKIP-mediated Ras/Raf1/MEK/ERK signal pathway by detecting the phosphorylation level of ERK, which could only be activated by MEK [37]. Principally, hRKIP binding with Raf1 inhibits the phosphorylation of Raf1, thereby blocking the following ERK phosphorylation and downregulating the MAPK pathway. […] The transfected cells were then treated with 160 μM suramin. The suramin concentration was experimentally determined as the maximal tolerant concentration for cell viability (Figure 4c), which was consistent with that used usually in clinical patients. […] As a result, the free Raf1 kinase was phosphorylated and the Ras/Raf1/MEK/ERK pathway was promoted with an enhanced phosphorylation level of the following ERK kinase.
Figure 4 Effects of suramin treatment on hRKIP-mediated Ras/Raf1/MEK/ERK pathway in HEK293 cells (a,b) Western blot analysis for the effect of suramin treatment on hRKIP-mediated ERK phosphorylation;(c) Effect of suramin treatment on viabilities of HEK293T cells transfected with hRKIP. (d,e) Western blot analysis for the effect of suramin on the ERK phosphorylation of HEK293T cell. * p <0.1; *** p <0.001; **** p <0.0001, n = 3 for each group.

hRKIP Y181A mutant = molecular target: T3, hRKIP Y181A mutant (Homo sapiens, UniProt P30086, Y181A); assay: BLI assay of suramin binding to hRKIP mutant Y181A
T3 construct: made in house; host or cells: E. coli
T3 sequence (P30086 1-187 Y181A): T2 sequence (P30086 1-187 P112L) with L112P, Y181A
Procedure: as §1, §2

hRKIP P74L mutant = molecular target: T4, hRKIP P74L mutant (Homo sapiens, UniProt P30086, P74L); assay: BLI assay of suramin binding to hRKIP mutant P74L
T4 construct: made in house; host or cells: E. coli
T4 sequence (P30086 1-187 P74L): T2 sequence (P30086 1-187 P112L) with P74L, L112P
Procedure: as §1, §2

[4] = test system: hRKIP-mediated Ras/Raf1/MEK/ERK signal pathway; assay: ERK phosphorylation (Western blot) in hRKIP-transfected HEK293T cells; assay type: cell-based, human; conditions: 160 µM suramin, 30 min before EGF stimulation, compared with no suramin treatment
Procedure: (§3) Human HEK293T cells were used as control group. HEK293T cells were first transfected with the exogenous hRKIP gene (the hRKIP-treated group), then the hRKIP transfected cells were serum starved overnight (10 h) and then incubated with 160 μM suramin for 30 min before EGF stimulation (the hRKIP-suramin-treated group). The transfection process was performed as following: 4 μg of pcDNA3.0-hRKIP was mixed with 75 μL lipotap (Beyotime, China), and the mixture was incubated with HEK293T cell in the dulbecco’s modified eagle medium (DMEM) with 100 units/mL penicillin (Sagon, Shanghai, China), 100 μg/mL streptomycin (Sagon, Shanghai, China) and 10% fetal bovine serum (Hyclone, Logan, UT, USA) for 6 h. Then the lipotap-DNA mixture was removed, and the transfected cell was further cultured in fresh medium. For all the three groups, the cells were cultured in DMEM supplemented with serum and […] at 37 °C. At 70% confluency, 10 ng/mL EGF was used to stimulate the Ras/Raf/MEK/ERK signal pathway for 5 min. The reaction was stopped by phosphate-buffered saline. […]
(§4) Cellular assay data are presented as mean ± standard deviation (SD). […] Statistical significances were determined using Student’s t-test. p < 0.05 was considered statistically significant.

HEK293T cell = assay: MTS experiments on HEK293T cells; assay type: cell-based; conditions: Homo sapiens, HEK-293T
[5] = test system: phosphorylation level of p-ERK in HEK293T cell; assay: ERK phosphorylation (Western blot) in HEK293T cells; assay type: cell-based, human; conditions: 160 μM suramin
Procedure: as §3, §4

hRKIP S109A mutant = molecular target: T5, hRKIP S109A mutant (Homo sapiens, UniProt P30086, S109A); assay: BLI assay of suramin binding to hRKIP mutant S109A
T5 construct: made in house; host or cells: E. coli
T5 sequence (P30086 1-187 S109A): T2 sequence (P30086 1-187 P112L) with S109A, L112P
Procedure: as §1, §2

hRKIP K113A mutant = molecular target: T6, hRKIP K113A mutant (Homo sapiens, UniProt P30086, K113A); assay: BLI assay of suramin binding to hRKIP mutant K113A
T6 construct: made in house; host or cells: E. coli
T6 sequence (P30086 1-187 K113A): T2 sequence (P30086 1-187 P112L) with L112P, K113A
Procedure: as §1, §2

hRKIP W173A mutant = molecular target: T7, hRKIP W173A mutant (Homo sapiens, UniProt P30086, W173A); assay: BLI assay of suramin binding to hRKIP mutant W173A
T7 construct: made in house; host or cells: E. coli
T7 sequence (P30086 1-187 W173A): T2 sequence (P30086 1-187 P112L) with L112P, W173A
Procedure: as §1, §2

hRKIP Y81A mutant = molecular target: T8, hRKIP Y81A mutant (Homo sapiens, UniProt P30086, Y81A); assay: BLI assay of suramin binding to hRKIP mutant Y81A
T8 construct: made in house; host or cells: E. coli
T8 sequence (P30086 1-187 Y81A): T2 sequence (P30086 1-187 P112L) with Y81A, L112P
Procedure: as §1, §2

T1 sequence (P30086 whole entry): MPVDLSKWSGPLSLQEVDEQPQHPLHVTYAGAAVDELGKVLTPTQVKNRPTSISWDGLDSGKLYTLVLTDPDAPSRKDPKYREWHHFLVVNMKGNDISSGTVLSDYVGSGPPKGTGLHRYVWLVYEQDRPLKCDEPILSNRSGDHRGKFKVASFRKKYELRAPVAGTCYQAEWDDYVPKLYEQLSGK

Question: For NCCOP(=O)(O)O [PE, oO-phosphorylethanolamine], which Kd (hRKIP [1]) is on record?
Answer: Its Kd is 8810 µM.

Question: And the kon (hRKIP [2]; BLI, wild-type RKIP)?
Answer: Its kon is 3.0 M⁻¹ s⁻¹.

Question: And the “dissociation rate (koff)” value (hRKIP [2]; BLI, wild-type hRKIP)?
Answer: Its value is 0.0264 s⁻¹.

Question: For Cc1ccc(C(=O)Nc2ccc(S(=O)(=O)O)c3cc(S(=O)(=O)O)cc(S(=O)(=O)O)c23)cc1NC(=O)c1cccc(NC(=O)Nc2cccc(C(=O)Nc3cc(C(=O)Nc4ccc(S(=O)(=O)O)c5cc(S(=O)(=O)O)cc(S(=O)(=O)O)c45)ccc3C)c2)c1 [suramin, Suramin], which Kd (hRKIP P112L mutant; P112L mutant) is on record?
Answer: The Kd was 20.4 µM.

Question: What about the kobs (hRKIP P112L mutant; P112L mutant) of the same compound?
Answer: The kobs was 0.00037 s⁻¹.

Question: And the koff (hRKIP P112L mutant; P112L mutant)?
Answer: The koff was 0.000166 s⁻¹.

Question: What about the kon (hRKIP P112L mutant; P112L mutant) of the same compound?
Answer: The kon was 8.14 M⁻¹ s⁻¹.

Question: And the “change of affinity of suramin relative to hRKIP” value (hRKIP P112L mutant; P112L mutant vs wild type)?
Answer: The value was “slightly increased affinity”.

Question: What about the “maximal tolerant concentration for cell viability” value [3] of the same compound?
Answer: The value was 160 µM.

Question: What about the Kd (hRKIP Y181A mutant; Y181A mutant) of the same compound?
Answer: The Kd was 711 µM.

Question: What about the kobs (hRKIP Y181A mutant; Y181A mutant) of the same compound?
Answer: Its kobs is 0.000177 s⁻¹.

Question: And the koff (hRKIP Y181A mutant; Y181A mutant)?
Answer: The koff was 0.000156 s⁻¹.

Question: And the kon (hRKIP Y181A mutant; Y181A mutant)?
Answer: Its kon is 0.22 M⁻¹ s⁻¹.

Question: And the “decrease of affinity of suramin relative to hRKIP” value (hRKIP Y181A mutant; Y181A mutant vs wild type)?
Answer: The value was “more than 75%”.

Question: What about the Kd (hRKIP P74L mutant; P74L mutant) of the same compound?
Answer: The Kd was 37.1 µM.

Question: What about the kobs (hRKIP P74L mutant; P74L mutant) of the same compound?
Answer: Its kobs is 0.000367 s⁻¹.

Question: And the koff (hRKIP P74L mutant; P74L mutant)?
Answer: The koff was 0.000275 s⁻¹.

Question: And the kon (hRKIP P74L mutant; P74L mutant)?
Answer: Its kon is 7.39 M⁻¹ s⁻¹.

Question: What about the “decrease of affinity of suramin relative to hRKIP” value (hRKIP P74L mutant; P74L mutant vs wild type) of the same compound?
Answer: Its value is “more than 30%”.

Question: What about the kobs (hRKIP [2]; BLI, wild-type RKIP) of the same compound?
Answer: Its kobs is 0.00368 s⁻¹.

Question: What about the Kd (hRKIP [2]; BLI, wild-type RKIP, 1:1 Langmuir binding model) of the same compound?
Answer: Its Kd is 23.8 µM.

Question: What about the koff (hRKIP [2]; BLI, wild-type RKIP, read-out: koff) of the same compound?
Answer: The koff was 0.000207 s⁻¹.

Question: And the kon (hRKIP [2]; BLI, wild-type RKIP, read-out: kon)?
Answer: The kon was 8.69 M⁻¹ s⁻¹.

Question: And the koff (hRKIP [2]; BLI, wild-type hRKIP, read-out: dissociation rate (koff))?
Answer: Its koff is 0.0002 s⁻¹.

Question: And the “higher affinity for binding to hRKIP compared with PE” value (hRKIP [2]; ratio of KD values, PE as native substrate)?
Answer: The value was “about 370 fold”.

Question: And the “increase of ERK phosphorylation level” value [4]?
Answer: The value was “around 3 times”.

Question: What about the IC50 (HEK293T cell) of the same compound?
Answer: The IC50 was 479 µM.

Question: And the “enhancement of phosphorylation level of p-ERK” value [5]?
Answer: Its value is “around 48%”.

Question: What about the Kd (hRKIP S109A mutant; S109A mutant) of the same compound?
Answer: Its Kd is 26 µM.

Question: And the kobs (hRKIP S109A mutant; S109A mutant)?
Answer: Its kobs is 0.00295 s⁻¹.

Question: And the koff (hRKIP S109A mutant; S109A mutant)?
Answer: The koff was 0.00018 s⁻¹.

Question: What about the kon (hRKIP S109A mutant; S109A mutant) of the same compound?
Answer: The kon was 6.93 M⁻¹ s⁻¹.

Question: And the “decrease of binding affinity of suramin relative to hRKIP” value (hRKIP S109A mutant; S109A mutant vs wild type)?
Answer: Its value is “around 10%”.

Question: What about the Kd (hRKIP K113A mutant) of the same compound?
Answer: Its Kd is 87.2 µM.

Question: What about the kobs (hRKIP K113A mutant) of the same compound?
Answer: Its kobs is 0.00038 s⁻¹.

Question: And the koff (hRKIP K113A mutant)?
Answer: The koff was 0.000295 s⁻¹.

Question: What about the kon (hRKIP K113A mutant) of the same compound?
Answer: Its kon is 3.38 M⁻¹ s⁻¹.

Question: What about the Kd (hRKIP W173A mutant) of the same compound?
Answer: Its Kd is 77.3 µM.

Question: And the kobs (hRKIP W173A mutant)?
Answer: The kobs was 0.000553 s⁻¹.

Question: And the koff (hRKIP W173A mutant)?
Answer: The koff was 0.000241 s⁻¹.

Question: And the kon (hRKIP W173A mutant)?
Answer: Its kon is 3.12 M⁻¹ s⁻¹.

Question: What about the Kd (hRKIP Y81A mutant; Y81A mutant) of the same compound?
Answer: Its Kd is 29.7 µM.

Question: And the kobs (hRKIP Y81A mutant; Y81A mutant)?
Answer: Its kobs is 0.000291 s⁻¹.

Question: And the koff (hRKIP Y81A mutant; Y81A mutant)?
Answer: Its koff is 0.000158 s⁻¹.

Question: And the kon (hRKIP Y81A mutant; Y81A mutant)?
Answer: The kon was 5.31 M⁻¹ s⁻¹.

Question: What about the “decrease of affinity of suramin relative to hRKIP” value (hRKIP Y81A mutant; Y81A mutant vs wild type) of the same compound?
Answer: The value was “around 20%”.
